Results on one molecule are retold here after paper PMC9230201, “Sustained Consumption of a Decaffeinated Green Coffee Nutraceutical Has Limited Effects on Phenolic Metabolism and Bioavailability in Overweight/Obese Subjects” (Nutrients, 2022).

The nature of data set [1]: Fecal excretion of phenolic metabolites after intake of the GCPE nutraceutical. The following applies: feces.
Method: (§1) Participants attended the Human Nutrition Unit (HNU) at the Institute of Food Science, Technology and Nutrition (ICTAN-CSIC) on two consecutive days at the beginning of the intervention (week 0) and also on two consecutive days at the end of the study, after consuming daily two doses of the GCPE nutraceutical, providing 600 mg/d phenols, during two months (week 8). […] A licensed health care professional placed an intravenous catheter in the subjects′ nondominant arm and collected a fasting blood sample (baseline, 0 h). Then, subjects drank the soluble GCPE nutraceutical dissolved in 200 mL of water. […] On the sampling days, volunteers remained at the HNU, where a (poly)phenol-free diet was provided. Half an hour after consuming the nutraceutical, volunteers ate a breakfast consisting of ham, cheese, white bread, and a yogurt. Lunch (paella, bread, and yogurt) and an afternoon snack (muffin and yogurt) were eaten 5 and 9 h, respectively, after consuming the nutraceutical. Water and isotonic beverages were freely available. […] The same protocol was followed during visits at the end of the 8-week intervention. On each occasion, two days before each visit to the HNU, subjects consumed a low (poly)phenol diet free of foods containing hydroxycinnamates such as coffee, herbal teas, red wine, artichokes, whole grain cereals, vegetables, fruits and fruit juices, and dried fruits. Only banana, watermelon, cantaloupes, and potatoes were allowed.
(§2) Blood samples were immediately centrifuged (10 min, 3000 rpm, 4 °C) to obtain plasma. […] All biological samples were stored at −80 °C until analysis.
(§3) To extract plasma metabolites, 10 µL of 50% (v/v) aqueous formic acid, and 900 µL cold acetonitrile containing 50 µL of 10% (w/v) ascorbic acid were added to 400 µL defrosted plasma. Samples were vortexed and centrifuged (14,000 rpm, 10 min, 4 °C), repeating the extraction and combining the two supernatants, which were reduced to dryness under nitrogen [13]. Dried samples were resuspended in 150 µL of 0.1% aqueous formic acid (containing 10% acetonitrile acidified with 0.1% formic acid), centrifuged (15 min, 14,000 rpm, 4 °C), and the supernatant collected. Urine samples were diluted 1:1 with Milli-Q water and centrifuged (14,000 rpm, 20 min, 4 °C) prior to analysis. Phosphate-buffered saline (3 mL) was added to a representative 300 mg sample of thawed feces, homogenized in an ultrasound bath during 10 min, centrifuged (14,000 rpm, 20 min, 4 °C), and the supernatants collected.
(§4) Mobile phase A was 0.1% formic acid in Milli-Q water, and mobile phase B was acetonitrile containing 0.1% formic acid at a 0.3 mL/min flow rate. […] Metabolites were identified based on their retention time using authentic standards when possible. […] Urine concentration of excreted metabolites was normalized to the total volume excreted in each studied interval.
(§5) Plasma (30 µL), urine (5 µL) and fecal extracts (5 µL) were filtered through 0.45 µm
(§6) cellulose-acetate membrane filters and injected into an Agilent 1200 series LC system
(§7) ESI-Jet Stream Technology (Agilent Technologies). A reverse-phase Ascentis Express
(§8) C18 (15 cm x 3 mm, 2.7 µm) column (Sigma-Aldrich Quimica, Madrid), preceded by a
(§9) phase A was 0.1% formic acid in Milli-Q water, and mobile phase B was acetonitrile
(§10) containing 0.1% formic acid at a 0.3 mL/min flow rate. The gradient started with 10% B
(§11) at 0 min, 30% B at 10 min, 40% B at 15 min, reaching 50% B at 20 min. The starting
(§12) gradient was then re-established in 2 min and maintained for 8 min to re-equilibrate the
A short description of data set [2]: Plasma pharmacokinetics of phenolic metabolites after intake of the GCPE nutraceutical (LC-MS-QToF). Particulars: human, oral; for AUC(0-t) / Tmax: 300 mg hydroxycinnamic acids; for AUC(0-t): AUC0–24h; for Tmax: Tmax (h) or Range; for Cmax: 300 mg, mean ± SEM, n = 9.
Data set [3] can be described thus: Urinary excretion of phenolic metabolites after intake of the GCPE nutraceutical. The following applies: for Cumulative urinary excretion, Total 0–24 h: urine, mean ± SEM, n = 9.
Method: as §1, §2, §3, §4, §5, §6, §7, §8, §9, §10, §11, §12

The AUC(0-t) is exposure summed from dosing to a finite time, without extrapolation to infinity. Usually Tmax stands for the time from dosing to the highest level. The term Cmax denotes the maximum level reached in the sampled fluid or tissue. With `COc1cc(CCC(=O)O)ccc1O` [DHFA, 3-(4′-Hydroxy-3′-methoxyphenyl)propanoic acid], the “Amount of fecal metabolite excreted at 0 h” value in data set [1] (week 0, mean ± SEM, n = 9) is reported as 0.013 ± 0.004 µmol/g; in data set [1] (week 8) it was 0.018 ± 0.003 µmol/g. Also, the results for the “Amount of fecal metabolite excreted at 24 h” value in data set [1] (week 0) and in data set [1] (week 8) were 0.019 ± 0.007 µmol/g and 0.014 ± 0.003 µmol/g, respectively. For the same molecule, the area under the curve AUC(0-t) in data set [2] (week 0) amounted to 2.2 ± 0.6 µM·h; in data set [2] (week 8), 1.8 ± 0.3 µM·h. Further, the Tmax was determined as 7.6 ± 0.4 h in data set [2] (week 0, first peak where biphasic) and 8.4 ± 0.6 h in data set [2] (week 8, first peak where biphasic). Also, the Cmax in data set [2] (week 0, GCPE nutraceutical with 300 mg hydroxycinnamic acids) worked out at 300 ± 100 nM; in data set [2] (week 8, GCPE nutraceutical with 300 mg hydroxycinnamic acids) it was 250 ± 60 nM. Besides, the “Cumulative urinary excretion, Total 0–24 h” value in data set [3] (week 0) is reported as 0.5 ± 0.2 µmol; in data set [3] (week 8) it was 1.1 ± 0.4 µmol. In addition, the Amount excreted in urine, 0- 3 h in data set [3] (week 0, interval 0–3 h) is 0.03 ± 0.02 µmol; in data set [3] (week 8, interval 0–3 h) it was 0.08 ± 0.07 µmol. In addition, the Amount excreted in urine, 3-6 h in data set [3] (week 0, interval 3–6 h) is 0.007 ± 0.007 µmol; in data set [3] (week 8, interval 3–6 h) it was 0.03 ± 0.02 µmol. Moreover, the Amount excreted in urine, 6-9 h in data set [3] (week 0, interval 6–9 h) was determined as 0.08 ± 0.04 µmol; in data set [3] (week 8, interval 6–9 h), 0.07 ± 0.05 µmol. Further, the Amount excreted in urine, 9-11 h stood at 0.05 ± 0.02 µmol in data set [3] (week 0, interval 9–11 h) and 0.09 ± 0.04 µmol in data set [3] (week 8, interval 9–11 h). The Amount excreted in urine, 11-24 h in data set [3] (week 0, interval 11–24 h) came to 0.11 ± 0.05 µmol; in data set [3] (week 8, interval 11–24 h), 0.07 ± 0.04 µmol.
